Measured values reported in patent US20120183614A1, “POLYPHENOL COMPOUND ABSORPTION PROMOTER AND UTILIZATION OF SAME” (priority 2009, published 2012).

What was measured:
[1] = Catechin compounds in human plasma after Camellia sinensis (L.) O. Kuntze extract with sodium malate (Test Example 9); format: in vivo; conditions: humans, 135 mg with Camellia sinensis (L.) O. Kuntze extract (195 mg catechin compounds), oral; total of five catechin compounds
Procedure: The effect of malic acid on absorption of a catechin compound in humans was examined. Five healthy men and women which were 20 years old or more and less than 65 years old were selected as test subjects, and a test was performed on the effect of increasing the amount of the catechin compound remaining in blood by ingesting sodium malate simultaneously with the Camellia sinensis (L.) O. Kuntze extract. […]
The test was performed by a crossover test as described below. […] In the same manner as in Test Example 4, concentrations of the catechin compounds in plasma were measured by the HPLC-ECD method (electrochemical detection method). […] As the second phase, concentrations of the catechin compounds in plasma were measured under the same conditions as those in the first phase except that each subject ingested the control substance. It should be noted that the concentrations of the catechin compounds were determined as a total concentration of five kinds of catechin compounds including EGCG, 3″-O-methylepigallocatechin gallate, epigallocatechin, epicatechin gallate, and epicatechin.

[2] = EGCG absorbability in rats, mixed administration solutions (Test Example 8); format: in vivo; conditions: oral, 1 mM EGCG, Fisher's PLSD
Description: The reason why the significant differences are found in EGCG absorbability between the Camellia sinensis (L.) O. Kuntze extracts and the usual green tea extracts although both are extracts obtained by the same hot-water extraction procedures is probably that substances contained in the extracts differ from each other. That is, the green tea extracts may contain an ingredient which inhibits EGCG absorption, or the Camellia sinensis (L.) O. Kuntze extracts may contain an ingredient which promotes EGCG absorption. In order to gain the chance of investigation of the possibility, an experiment shown in this test example was performed. Specifically, a Camellia sinensis (L.) O. Kuntze extract solution, a usual green tea extract solution, and an EGCG reagent solution were prepared so as to have the same EGCG concentration, and solutions obtained by mixing the solutions in appropriate combination were administered to rats to investigate changes in EGCG absorbability. […] In the same manner as in Test Example 7, the administration solutions were orally administered forcibly to rats mounted with a cannula in the vein, and EGCG concentrations in plasma obtained by blood collection performed with time after administration were measured and converted into areas under curve to compare amounts of EGCG remaining in blood. […]

[3] = tested on: Caco-2 cells; assay: In vitro EGCG absorption measurement system, Caco-2 cell monolayer on Transwell (Papp of EGCG, chorionic to serosal side)
Procedure: An orally-ingested polyphenol compound, in particular, catechin compound is considered to be absorbed mainly in the intestinal tract, especially the small intestine in the body. […]
The Caco-2 cells were cultured in the presence of humidified air containing 5% CO2 in a Dulbecco's modified Eagle medium (DMEM, pH 7.4; manufactured by GIBCO) containing 10% inactivated fetal bovine serum (manufactured by HyClone), 50 U/mL penicillin-50 μg/mL streptomycin (manufactured by GIBCO), and a 1% non-essential amino acid (manufactured by GIBCO) in a plastic flask of 75 cm^2. The cells were maintained by performing subculture every 5 to 8 days when the cells reached 80 to 90% confluence. An EGCG absorption experiment to be described below was performed using Caco-2 cells which had been subcultured 30 to 70 times.
The EGCG absorption experiment was performed using a Caco-2 cell monolayer cultured on a Transwell with a diameter of 12 mm (polycarbonate filter culture area: 1.13 cm^2, pore size: 0.4 μm; manufactured by Corning). […] Transepithelial electrical resistance (hereinafter, referred to as “TEER”) was measured using a Millicell ERS meter (manufactured by Millipore) to monitor the degree of completion of a tight junction of the cell monolayer, and a monolayer which had been confirmed that formation of the tight junction had been completed was used in the experiment. […]

[4] = Stability of EGCG in the chorionic side HBSS solution; format: physicochemical; conditions: chorionic side HBSS solution with 1 mM ascorbic acid, pH 5.5
Procedure: In addition, the EGCG absorption capacity of the Caco-2 cells was maintained constantly for 4 hours or more by adding 10 mM glutamine to the HBSS solutions of the chorionic side and serosal side in the measurement system.

[5] = EGCG absorbability in rats, Camellia sinensis (L.) O. Kuntze extracts versus green tea extracts (Test Example 7); format: in vivo; conditions: rat plasma
Description: For Camellia sinensis (L.) O. Kuntze extracts (Camellia sinensis (L.) O. Kuntze tea hot water extract manufactured by ASAHI SOFT DRINKS CO., Ltd.; lot 1 [i], lot 2 [ii], and lot 3 [iii]) and green tea extracts (green tea hot water extract manufactured by San-Ei Gen F.F.I., Inc.; lot 4 [iv] and lot 5 [v]), absorbability of EGCG by rats were compared. […] During the recuperation period, the rats were fed individually in cages equipped with floor nets and allowed to ingest CE-2 feed (manufactured by CLEA Japan, Inc.) freely. The numbers of samples of the administration solutions are as follows: [i] Camellia sinensis (L.) O. Kuntze extract lot 1-administered group: n=7; [ii] Camellia sinensis (L.) O. Kuntze extract lot 2-administered group: n=7; [iii] Camellia sinensis (L.) O. Kuntze extract lot 3-administered group: n=6; [iv] green tea extract lot 4-administered group:n=5; and [v] green tea extract lot 5-administered group: n=4. […] The EGCG concentration in plasma was measured in the same manner as in Test Example 4. […] Isocratic elution was performed at a sample injection volume to the column of 20 μL using 0.1% phosphoric acid containing 0.1 mM EDTA·2Na:acetonitrile=90:10 as the mobile phase at a flow rate of 0.4 mL/min. […] The EGCG concentrations in actual administration solutions were also analyzed again, and it was confirmed that EGCG was administered to the rats in scheduled amounts. […]

[6] = EGCG in rat plasma after oral administration of green tea extract solution with serine and malic acid (Test Example 4); format: in vivo, rats; conditions: rat plasma after administration solutions (i) to (iv)
Procedure: The final EGCG concentration derived from the green tea extract contained in each administration solution was adjusted to 1 mM. […] During the recuperation period, the rats were fed individually in cages equipped with floor nets and allowed to ingest CE-2 feed (manufactured by CLEA Japan, Inc.) freely. […] The EGCG concentration in plasma was measured as follows: […] Isocratic elution was performed at a sample injection volume to the column of 20 μL using 0.1% phosphoric acid containing 0.1 mM EDTA·2Na:acetonitrile=90:10 as the mobile phase at a flow rate of 0.4 mL/min. […] The retention time of the EGCG standard substance was 8.0 minutes, and the detection sensitivity was 2 nM. The EGCG concentrations in actual administration solutions were also analyzed again, and it was confirmed that EGCG was administered to the rats in scheduled amounts. Rat plasma collected after administration of each of the administration solutions (i), (ii), (iii), and (iv) was treated and subjected to HPLC analysis as mentioned above. […] In other words, it was considered that most of EGCG in blood was absorbed in blood as an unconjugated free body.

[7] = tested on: Caco-2 cell monolayer; assay: Transepithelial electrical resistance (TEER) of the Caco-2 cell monolayer; format: cell-based, human; conditions: EGCG reagent added at different concentrations to the chorionic side, 3-hour measurement period
Procedure: The EGCG absorption experiment was performed using a Caco-2 cell monolayer cultured on a Transwell with a diameter of 12 mm (polycarbonate filter culture area: 1.13 cm^2, pore size: 0.4 μm; manufactured by Corning). The Caco-2 cells were inoculated onto an insert of the Transwell at a density of 1.0×10^5 cells/cm^2, and culture was continued while the medium was exchanged for a fresh one every 2 days. Transepithelial electrical resistance (hereinafter, referred to as “TEER”) was measured using a Millicell ERS meter (manufactured by Millipore) to monitor the degree of completion of a tight junction of the cell monolayer, and a monolayer which had been confirmed that formation of the tight junction had been completed was used in the experiment. […]
The medium of the upper part of the Transwell insert on which the Caco-2 cell monolayer was placed (chorionic side) was replaced by a Hanks' Balanced Salt Solution-like Transport Medium having a pH of 5.5 (chorionic side HBSS solution; containing 10 mM MES, 5 mM glucose, 10 mM glutamine, and 1 mM ascorbic acid), and the medium of the lower part of the insert (serosal side) was replaced by HBSS having a pH of 7.4 (serosal side HBSS solution; containing […], 5 mM glucose, 10 mM glutamine, and 1 mM ascorbic acid). […] The cells were incubated for 30 minutes, and TEER was measured again. […]

Difference in mean values, EGCG concentrations in plasma × time (areas under curve) ([2]; labelled solution vs [ii] EGCG reagent + green tea extract) | Difference in mean values, EGCG concentrations in plasma × time (areas under curve) ([2]; labelled solution vs [iii] Camellia sinensis (L.) O. Kuntze extract + green tea extract) | Stability of EGCG during the absorption experiment period [4] | Change in EGCG concentrations in plasma before and after the deconjugation treatment with β-glucuronidase and sulfatase [5] | Change in EGCG concentration in plasma before and after deconjugation treatments with β-glucuronidase and sulfatase [6] | TEER during the measurement period [7] | SMILES | AUC0→4h of total catechins in plasma relative to ingestion of no sodium malate [1] [times] | EGCG absorbed in the form of a conjugate (deconjugation treatment of EGCG permeated to the serosal side) [3]
– | – | – | – | – | – | O=C([O-])CC(O)C(=O)[O-].[Na+].[Na+] (centres unmarked) [sodium malate] | 1.6 | –
0.0052 | 0.0009 | maintained completely and stably | not changed | no changes | maintained well | O=C(O[C@@H]1Cc2c(O)cc(O)cc2O[C@@H]1c1cc(O)c(O)c(O)c1)c1cc(O)c(O)c(O)c1 [EGCG, epigallocatechin gallate] | – | no EGCG absorbed in the form of a conjugate
